Data on two compounds can be found in patent US20260297031A1, “HYDROXYLAMINE-BASED BCR-ABL1 INHIBITORS FOR TREATMENT OF CANCER” (University of Georgia Research Foundation, Inc., priority 2023, published 2026).

pIC50: −log10 of the molar value. ≈ marks a conversion by molar mass, not a printed value.

A short description of data set [1]: MDCKII-MDR1 permeability. The conditions noted are these: dog, MDCK-MDR1, pH 7.4. On the procedure:
MDCKII-MDR1 Permeability (Independently Performed By: Pharmaron Inc., Ninqbo, CN)
To each well of the Transwell insert and reservoir were added 50 μL and 25 mL of cell culture medium, respectively.
To determine the rate of drug transport in the apical to basolateral direction, 125 μL of the working solution of either test compounds or control compounds was added to the Transwell insert (apical compartment) and a 50 μL sample was immediately transferred from the apical compartment to 200 μL of acetonitrile containing internal standard (100 nM alprazolam, 200 nM caffeine, and 100 nM tolbutamide) in a new 96-well plate as the initial donor sample (A-B). The sample was then vortexed at 1,000 rpm for 10 min. The receiver plate (basolateral compartment) wells were then filled with 235 μL transport buffer. To determine the rate of drug transport in the basolateral to apical direction, 285 μL of the working solution of either test compounds or control compounds was added to the receiver plate (basolateral compartment) wells and a 50 μL of sample was immediately transferred from the basolateral compartment to 200 μL of acetonitrile containing internal standard in a new 96-well plate as the initial donor sample (B-A). The sample was vortexed for 10 min at 1,000 rpm. The Transwell insert (apical compartment) was then filled with 75 μL of transport buffer and the apical to basolateral direction and the basolateral to apical direction were done at the same time. […] After incubation, 50 μL samples from donor sides (apical compartment for Ap→BI flux, and basolateral compartment BI→Ap) and receiver sides (basolateral compartment for Ap→BI flux, and apical compartment for BI→Ap) were transferred to wells of a new 96-well plate, followed by the addition of 200 μL acetonitrile containing internal standard. […] An aliquot of 100 μL of the supernatant was mixed with an appropriate volume of ultra-pure water before LC-MS/MS analysis.
To monitor for monolayer integrity, Lucifer yellow leakage was determined after the 2 h transport period. This began by preparing a stock solution of Lucifer yellow in DMSO and diluted with HBSS (10 mM HEPES, pH 7.4.) to reach a final concentration of 100 μM. To each Transwell insert (apical compartment) was then added 100 μL of the Lucifer yellow solution, followed by filling the wells in the receiver plate (basolateral compartment) with 300 μL of HBSS (10 mM HEPES, pH 7.4).
The efflux ratio was determined using the following equation: […]

Data set [2] is described as follows: Metabolic stability in rat hepatocytes. In kind it is in vitro ADME. Particulars: rat hepatocytes. How it is done: All calculations were carried out using Microsoft Excel. Peak areas were determined from extracted ion chromatograms.
Data set [3] in a line: Plasma protein binding by equilibrium dialysis, rat plasma. The format is in vitro ADME. Particulars: plasma, 5 μM, read-out: fu, plasma %. How it is done:
Plasma Protein Binding by Equilibrium Dialysis (Independently Performed by Pharmaron Inc., Ninqbo, CN)
Initially, 1 mM solutions of test compounds and the control compound (Ketoconzaole) were prepared in DMSO. After this, dialysis membranes were soaked in ultrapure water for 60 min to separate strips, followed by 20% aq. ethanol for 20 min, and finally in a dialysis buffer for 20 min. […] After this, 597 μL of blank plasma solution followed by 3 μL of the working solutions of either test compounds or control compound were added to a new plastic plate or separate plastic tube and the solutions were vortexed at 1,000 rpm for 2 min. Immediately after this, 50 μL of spiked plasma solution suspension was transferred to a 96-well plate to act as T=0 control. The remaining samples were treated in the same manner, whereby all remaining spiked plasma solutions were added to the incubator for the duration of the study.
Cells were then loaded with 120 μL of the plasma samples and dialyzed against an equal volume of dialysis buffer (PBS). […] At the end of incubation, the lid was removed and 50 μL of post-dialysis samples were removed from both buffer and plasma solution chambers into a separate 96-well plate for analysis. The plasma solutions (50 μL) were then added to the buffer samples along with an equal volume of PBS (50 μL) to the collected plasma solution samples. The plate was shaken at 1,000 rpm for 2 min and 400 μL of acetonitrile containing an appropriate internal standard was added to precipitate protein and release compound. The samples were then vortexed at 1,000 rpm for an additional 10 min followed by centrifugation at 3,220 g for 30 min. […] The samples were analyzed by LC-MS/MS and 100 μL of distilled water was added to each sample prior to analysis.
Concentrations of test compounds and control compound in buffer and plasma solution chambers was determined and percentages of test compounds and control compound bound using the following equations (mean of n=2 replicates): […]
(Equilibrium dialysis compares concentrations on both sides of a semipermeable membrane.)

For data set [4], the target named is T1, BCR-ABL1 Y253F (Homo sapiens, UniProt P00519, Y253F).
T1 construct: BCR (fusion partner, as the printed name BCR-ABL1 says)
Kind of data set: KinaseProfiler radiometric kinase assay, BCR-ABL1 Y253F. The format is biochemical. Particulars: [ATP] = 10 μM; mean of n = 2.

Data set [5] in a line: Aqueous solubility. How it is done: Solubility Determinations (Independently Performed by Pharmaron Inc., Ninqbo, CN)
Test compounds and control compounds (progesterone or diclofenac) were initially prepared as 10 mM DMSO stock solutions. […] After such time, plugs and stir sticks were removed and the samples from the solubility sample plate were transferred into the filter plate. All the samples were then filtered and 5 μL of filtrate was taken and added along with 5 μL of DMSO and 490 μL of a 1:1 (v/v) mixture of H2O and acetonitrile containing internal standard (100 nM alprazolam, 200 nM Caffeine and 100 nM tolbutamide) to the plate yielding a final concentration of 3 μM. The samples were then analyzed by LC-MS and diluted according to the peak shape with ultrapure water.
Filtrate was analyzed and quantified against a standard of known concentration using LC coupled with MS peak identification and quantitation. Solubility values of test compounds and progesterone were calculated as follows and are presented as the mean of n=2 replicates: […]

The target of data set [6] is T2, BCR-ABL1 wt (Homo sapiens, UniProt P00519).
T2 construct: called BCR-ABL1 in the text
Kind of data set: KinaseProfiler radiometric kinase assay, BCR-ABL1 wt. In kind it is biochemical. Particulars: [ATP] = 10 μM; mean of n = 2.

The target in data set [7] is hERG channel (Homo sapiens, UniProt Q12809). Kind of data set: hERG safety evaluation by manual patch-clamp system. On the technique in general: hERG is a cardiac potassium channel; its block is linked to QT prolongation.
hERG channel, sequence (Q12809 whole entry): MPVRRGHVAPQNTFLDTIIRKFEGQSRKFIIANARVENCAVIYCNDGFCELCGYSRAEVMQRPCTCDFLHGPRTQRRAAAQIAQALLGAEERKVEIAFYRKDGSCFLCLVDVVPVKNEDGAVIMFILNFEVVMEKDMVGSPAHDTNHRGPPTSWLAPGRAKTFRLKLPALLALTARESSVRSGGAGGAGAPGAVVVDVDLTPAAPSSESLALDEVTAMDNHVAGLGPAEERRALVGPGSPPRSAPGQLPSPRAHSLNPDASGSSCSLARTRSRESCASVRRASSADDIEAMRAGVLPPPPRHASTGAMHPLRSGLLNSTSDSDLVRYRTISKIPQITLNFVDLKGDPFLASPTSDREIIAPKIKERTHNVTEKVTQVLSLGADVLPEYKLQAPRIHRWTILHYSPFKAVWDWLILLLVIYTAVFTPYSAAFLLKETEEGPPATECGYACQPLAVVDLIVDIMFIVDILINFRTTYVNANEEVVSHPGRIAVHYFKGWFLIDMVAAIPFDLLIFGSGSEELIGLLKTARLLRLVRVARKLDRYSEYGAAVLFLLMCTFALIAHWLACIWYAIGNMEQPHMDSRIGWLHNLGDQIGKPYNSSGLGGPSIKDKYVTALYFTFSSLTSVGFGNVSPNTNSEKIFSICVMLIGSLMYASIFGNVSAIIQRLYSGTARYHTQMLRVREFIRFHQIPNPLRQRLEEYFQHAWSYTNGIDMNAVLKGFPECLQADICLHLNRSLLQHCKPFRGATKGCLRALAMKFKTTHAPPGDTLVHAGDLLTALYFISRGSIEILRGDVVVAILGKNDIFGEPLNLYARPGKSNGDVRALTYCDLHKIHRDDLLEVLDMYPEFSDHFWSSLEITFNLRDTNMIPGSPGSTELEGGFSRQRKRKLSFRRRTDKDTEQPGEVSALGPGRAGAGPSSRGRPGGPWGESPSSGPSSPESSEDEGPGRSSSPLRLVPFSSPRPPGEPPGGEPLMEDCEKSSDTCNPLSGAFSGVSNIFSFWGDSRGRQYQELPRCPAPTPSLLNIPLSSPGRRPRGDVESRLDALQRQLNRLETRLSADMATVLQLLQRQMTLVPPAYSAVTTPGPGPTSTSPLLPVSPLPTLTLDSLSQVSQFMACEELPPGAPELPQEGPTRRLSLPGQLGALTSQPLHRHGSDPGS

For the compound `COc1cc(Nc2c(C#N)cnc3cc(OCCON4CCN(C)CC4)c(OC)cc23)c(F)cc1Cl` [Compound 15, 4-((4-chloro-2-fluoro-5-methoxyphenyl)amino)-6-methoxy-7-(2-((4-methylpiperazin-1-yl)oxy)ethoxy)quinoline-3-carbonitrile], in data set [1], the Papp A→B at 2 h, 1 µM was 0.7 ×10⁻⁶ cm/s; the Papp B→A at 2 h, 1 µM was found to be 19.3 ×10⁻⁶ cm/s; the efflux ratio at 1 µM amounted to 26.5. In data set [2], this compound registered a half-life of 12.3 min. Further, the hepatocyte CLint in data set [2] (read-out: HEPCIint (rate of metabolism)) is 113 µL/min/1e6 cells. The fraction unbound at 6 h, 5 µM in data set [3] is 0.049. The pIC50 in data set [4] is 9.00. Further, the kinetic solubility at 2 h in data set [5] (phosphate buffer, pH 7.4, aqueous buffer) worked out at 43 µM (≈ 22.2 µg/mL). Moreover, in data set [6], the negative logarithm of the IC50 (pIC50) is 9.00.

On to `COc1cc2c(Nc3cccc(OC)c3Cl)c(C#N)cnc2cc1OCCON1CCN(C)CC1` [Compound 17, 4-((2-Chloro-3-methoxyphenyl)amino)-6-methoxy-7-(2-((4-methylpiperazin-1-yl)oxy)ethoxy)quinoline-3-carbonitrile], for which the “hERG liability, in words” value in data set [7] is on record as “minimal hERG inhibition”. Besides, the “solubility, in words” value in data set [5] is listed as “high aqueous solubility at pH 7.4”.

Broadly, the Papp A→B is how fast a substance crosses the layer from the apical side. The Papp B→A is the apparent permeability from the basolateral to the apical side of a cell layer. What is called efflux ratio is the permeability from basolateral to apical divided by that in the opposite direction, in the common usage. For orientation: half-life means how long it takes for the measured level to halve. Low readings indicate fast loss, high ones slow loss. Usually pIC50 stands for the IC50 on a negative log10 scale, so that one unit is a factor of ten. What is called solubility (kinetic) is solubility judged after dilution from a stock solution rather than from solid.
